According to PubChem BioAssay (NCI):
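In this assay, cells in 96-well plates receive the compound at five concentrations for 48 hours. Endpoints are linearly interpolated between the surrounding concentrations. TGI: total growth inhibition.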

Columns and labels:
Experiment in all cases: inhibition of tumour cell growth, NCI panel, 48 h
DMS 273 small cell lung = tested on: DMS 273 small cell lung
SF-539 CNS = tested on: SF-539 CNS
UO-31 renal = tested on: UO-31 renal
IGROV1 ovarian = tested on: IGROV1 ovarian
KM12 colon = tested on: KM12 colon
SK-MEL-28 melanoma = tested on: SK-MEL-28 melanoma
UACC-62 melanoma = tested on: UACC-62 melanoma
HCC-2998 colon = tested on: HCC-2998 colon
HCT-15 colon = tested on: HCT-15 colon
CCRF-CEM leukemia = tested on: CCRF-CEM leukemia
NCI-H522 lung = tested on: NCI-H522 lung
NCI-H460 lung = tested on: NCI-H460 lung
OVCAR-3 ovarian = tested on: OVCAR-3 ovarian
SW-620 colon = tested on: SW-620 colon
RXF-631 renal = tested on: RXF-631 renal
UACC-257 melanoma = tested on: UACC-257 melanoma
SF-295 CNS = tested on: SF-295 CNS
KM20L2 colon = tested on: KM20L2 colon
SK-OV-3 ovarian = tested on: SK-OV-3 ovarian
COLO 205 colon = tested on: COLO 205 colon
SNB-78 CNS = tested on: SNB-78 CNS
LOX IMVI melanoma = tested on: LOX IMVI melanoma
NCI-H226 lung = tested on: NCI-H226 lung
EKVX NSCLC = tested on: EKVX NSCLC
SK-MEL-5 melanoma = tested on: SK-MEL-5 melanoma
M14 melanoma = tested on: M14 melanoma
SN12C renal = tested on: SN12C renal
RXF 393 renal = tested on: RXF 393 renal
SNB-75 CNS = tested on: SNB-75 CNS
MOLT-4 leukemia = tested on: MOLT-4 leukemia
HL-60(TB) leukemia = tested on: HL-60(TB) leukemia
MALME-3M melanoma = tested on: MALME-3M melanoma
HT29 colon = tested on: HT29 colon
ACHN renal = tested on: ACHN renal
DLD-1 colon = tested on: DLD-1 colon
SNB-19 CNS = tested on: SNB-19 CNS
786-0 renal = tested on: 786-0 renal
SK-MEL-2 melanoma = tested on: SK-MEL-2 melanoma
DMS 114 small cell lung = tested on: DMS 114 small cell lung
M19-MEL melanoma = tested on: M19-MEL melanoma
SF-268 CNS = tested on: SF-268 CNS
U251 CNS = tested on: U251 CNS
LXFL 529 NSCLC = tested on: LXFL 529 NSCLC
HOP-62 NSCLC = tested on: HOP-62 NSCLC
A549 NSCLC = tested on: A549 NSCLC
CAKI-1 renal = tested on: CAKI-1 renal
HCT-116 colon = tested on: HCT-116 colon
RPMI-8226 leukemia = tested on: RPMI-8226 leukemia
OVCAR-4 ovarian = tested on: OVCAR-4 ovarian
OVCAR-8 ovarian = tested on: OVCAR-8 ovarian
K-562 leukemia = tested on: K-562 leukemia
HOP-18 NSCLC = tested on: HOP-18 NSCLC
NCI-H23 lung = tested on: NCI-H23 lung
XF 498 CNS = tested on: XF 498 CNS
TK-10 renal = tested on: TK-10 renal

`CC(C)CCC[C@@H](C)C1CCC2[C@@H]3CC=C4C[C@@H](C(=O)NCC[N+](C)(C)CCCS(=O)(=O)[O-])CC[C@]4(C)C3CC[C@@]21C` (stereo partly drawn) was tested, and the TGI (DMS 273 small cell lung) was 31.4 µM, the TGI (SF-539 CNS) was 36.6 µM and the TGI (UO-31 renal) was 34.3 µM. It also gave a TGI (IGROV1 ovarian) of 32.6 µM, a TGI (KM12 colon) of 31.5 µM and a TGI (SK-MEL-28 melanoma) of 34.5 µM. The TGI (UACC-62 melanoma) was 34.7 µM, the TGI (HCC-2998 colon) was 35.2 µM and the TGI (HCT-15 colon) was 30.9 µM. The TGI (CCRF-CEM leukemia) was 31.5 µM, the TGI (NCI-H522 lung) was 23.6 µM and the TGI (NCI-H460 lung) was 30.6 µM. The TGI (OVCAR-3 ovarian) was 30 µM, the TGI (SW-620 colon) was 30.7 µM and the TGI (RXF-631 renal) was 34.6 µM. It also gave a TGI (UACC-257 melanoma) of 34.8 µM, a TGI (SF-295 CNS) of 35 µM and a TGI (KM20L2 colon) of 30.4 µM. For the same compound, the TGI (SK-OV-3 ovarian) was 30.9 µM, the TGI (COLO 205 colon) was 31.9 µM and the TGI (SNB-78 CNS) was 37.4 µM. For the same compound, the TGI (LOX IMVI melanoma) was 25.2 µM, the TGI (NCI-H226 lung) was 37.9 µM and the TGI (EKVX NSCLC) was 31 µM. For the same compound, the TGI (SK-MEL-5 melanoma) was 41.4 µM, the TGI (M14 melanoma) was 31.6 µM and the TGI (SN12C renal) was 32.6 µM. It also gave a TGI (RXF 393 renal) of 36.5 µM, a TGI (SNB-75 CNS) of 35.1 µM and a TGI (MOLT-4 leukemia) of 35.1 µM. It also gave a TGI (HL-60(TB) leukemia) of 28.3 µM, a TGI (MALME-3M melanoma) of 33.3 µM and a TGI (HT29 colon) of 33 µM. It also gave a TGI (ACHN renal) of 32.5 µM, a TGI (DLD-1 colon) of 49.7 µM and a TGI (SNB-19 CNS) of 36.4 µM. The TGI (786-0 renal) was 31.1 µM, the TGI (SK-MEL-2 melanoma) was 32.4 µM and the TGI (DMS 114 small cell lung) was 35.7 µM. For the same compound, the TGI (M19-MEL melanoma) was 31.1 µM, the TGI (SF-268 CNS) was 37.8 µM and the TGI (U251 CNS) was 31.2 µM. For the same compound, the TGI (LXFL 529 NSCLC) was 33.3 µM, the TGI (HOP-62 NSCLC) was 42.9 µM and the TGI (A549 NSCLC) was 31.7 µM. It also gave a TGI (CAKI-1 renal) of 27.2 µM, a TGI (HCT-116 colon) of 30.9 µM and a TGI (RPMI-8226 leukemia) of 41.5 µM. For the same compound, the TGI (OVCAR-4 ovarian) was 35.9 µM, the TGI (OVCAR-8 ovarian) was 35 µM and the TGI (K-562 leukemia) was 29.9 µM. For the same compound, the TGI (HOP-18 NSCLC) was 35.8 µM.
With `CC(=O)OC1CC2Oc3ccc(C)cc3C(C)(O2)C1=O` (stereo not drawn) the TGI (DMS 273 small cell lung) was > 100 µM, the TGI (SF-539 CNS) was > 100 µM and the TGI (UO-31 renal) was > 100 µM. The TGI (IGROV1 ovarian) was > 100 µM, the TGI (KM12 colon) was > 100 µM and the TGI (NCI-H23 lung) was > 100 µM. The TGI (SK-MEL-28 melanoma) was > 100 µM, the TGI (UACC-62 melanoma) was > 100 µM and the TGI (HCT-15 colon) was > 100 µM. For the same compound, the TGI (CCRF-CEM leukemia) was > 100 µM, the TGI (NCI-H522 lung) was > 100 µM and the TGI (NCI-H460 lung) was > 100 µM. For the same compound, the TGI (OVCAR-3 ovarian) was > 100 µM, the TGI (SW-620 colon) was > 100 µM and the TGI (UACC-257 melanoma) was > 100 µM. For the same compound, the TGI (SF-295 CNS) was > 100 µM, the TGI (XF 498 CNS) was > 100 µM and the TGI (SK-OV-3 ovarian) was > 100 µM. For the same compound, the TGI (COLO 205 colon) was > 100 µM, the TGI (LOX IMVI melanoma) was > 100 µM and the TGI (NCI-H226 lung) was > 100 µM. The TGI (EKVX NSCLC) was > 100 µM, the TGI (SK-MEL-5 melanoma) was > 100 µM and the TGI (M14 melanoma) was > 100 µM. The TGI (SN12C renal) was > 100 µM, the TGI (RXF 393 renal) was > 100 µM and the TGI (SNB-75 CNS) was > 100 µM. For the same compound, the TGI (MOLT-4 leukemia) was > 100 µM, the TGI (HL-60(TB) leukemia) was > 100 µM and the TGI (MALME-3M melanoma) was > 100 µM. For the same compound, the TGI (HT29 colon) was > 100 µM, the TGI (TK-10 renal) was > 100 µM and the TGI (ACHN renal) was > 100 µM. The TGI (DLD-1 colon) was > 100 µM, the TGI (SNB-19 CNS) was > 100 µM and the TGI (786-0 renal) was > 100 µM. The TGI (DMS 114 small cell lung) was > 100 µM, the TGI (M19-MEL melanoma) was > 100 µM and the TGI (U251 CNS) was > 100 µM. For the same compound, the TGI (HOP-62 NSCLC) was > 100 µM, the TGI (A549 NSCLC) was > 100 µM and the TGI (HCT-116 colon) was > 100 µM. The TGI (RPMI-8226 leukemia) was > 100 µM, the TGI (OVCAR-8 ovarian) was > 100 µM and the TGI (K-562 leukemia) was > 100 µM. For the same compound, the TGI (HOP-18 NSCLC) was > 100 µM.
